Test results as given in patent US20160185797A1, “ALKYNYL ALCOHOLS AND METHODS OF USE” (Genentech, Inc., priority 2013, published 2016).
pIC50: −log10 of the molar value.

Legend:
[1] = molecular target: T1, nuclear factor-kappa B (NF-kB)-inducing kinase (NIK) (Homo sapiens, UniProt Q99558); assay: NIK enzyme inhibition assay (Transcreener ADP fluorescence polarization, NIK ADP-FP); assay type: biochemical
T1 construct: made in house; host or cells: baculovirus-infected insect cells
Protocol: NIK Enzyme Inhibition Assay:
The ability of the nuclear factor-kappa B (NF-kB)-inducing kinase (NIK) to catalyze the hydrolysis of adenosine-5′-triphosphate (ATP) was monitored using the Transcreener ADP (adenosine-5′-diphosphate) assay (BellBrook Labs). […] Reactions were quenched by the addition of 20 mM 2,2′,2″,2′″-(ethane-1,2-diyldinitrilo)tetraacetic acid and 0.01% Brij 35. The tracer bound to the antibody was displaced by the ADP generated during the NIK reaction, which causes a decrease in fluorescence polarization that was measured by laser excitation at 633 nm with a Fluorescence Correlation Spectroscopy Plus reader (Evotec AG). Equilibrium dissociation constant (Ki) values for NIK inhibitors are calculated from plots of activity vs. inhibitor concentration using Morrison's quadratic equation that accounts for the potential of tight binding, and by also applying the conversion factor that accounted for competitive inhibition and the concentration of substrate used in the assay relative to its Michaelis constant (Km).

[2] = system: REL-A (p65) nuclear translocation in HeLa cells; assay: REL-A (p65) nuclear translocation assay in HeLa cells, TNF-α stimulated (classical NF-kB signaling), high content imaging; assay type: cell-based; conditions: Homo sapiens, HeLa, compound 4.5 h, then 10 ng/mL TNF-α for 30 minutes, read-out: REL-A HeLa Transloc Assay (IC50)
In short: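 HeLa cells in medium with 10% fetal bovine serum were exposed to compounds (0.2% DMSO final) for 4.5 hours, then stimulated with 10 ng/mL TNF-α for 30 minutes. After fixation in 4% paraformaldehyde and permeabilization with 0.1% Triton X-100, cells were stained with 400 ng/mL anti-REL-A (p65) antibody, an Alexa488 secondary and DRAQ5. Opera imaging quantified the nuclear-to-cytoplasmic signal ratio to give IC50.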

[3] = system: p52 (NF-kB2) nuclear translocation in HeLa cells; assay: p52 (NF-kB2) nuclear translocation assay in HeLa cells, anti-lymphotoxin beta receptor antibody stimulated (non-classical NF-kB signaling), high content imaging; assay type: cell-based; conditions: Homo sapiens, 100 ng/mL anti-lymphotoxin beta receptor antibody for 5 hours, read-out: p52 HeLa Transloc Assay (IC50)
In short: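 HeLa cells in 10% FBS medium were treated with compound (0.2% DMSO final) and stimulated with 100 ng/mL anti-lymphotoxin beta receptor antibody for 5 h. Fixed cells were immunostained for p52 and imaged with DRAQ5 nuclear stain. Translocation is the nuclear to cytoplasmic intensity ratio, […].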

T1 sequence (Q99558 whole entry): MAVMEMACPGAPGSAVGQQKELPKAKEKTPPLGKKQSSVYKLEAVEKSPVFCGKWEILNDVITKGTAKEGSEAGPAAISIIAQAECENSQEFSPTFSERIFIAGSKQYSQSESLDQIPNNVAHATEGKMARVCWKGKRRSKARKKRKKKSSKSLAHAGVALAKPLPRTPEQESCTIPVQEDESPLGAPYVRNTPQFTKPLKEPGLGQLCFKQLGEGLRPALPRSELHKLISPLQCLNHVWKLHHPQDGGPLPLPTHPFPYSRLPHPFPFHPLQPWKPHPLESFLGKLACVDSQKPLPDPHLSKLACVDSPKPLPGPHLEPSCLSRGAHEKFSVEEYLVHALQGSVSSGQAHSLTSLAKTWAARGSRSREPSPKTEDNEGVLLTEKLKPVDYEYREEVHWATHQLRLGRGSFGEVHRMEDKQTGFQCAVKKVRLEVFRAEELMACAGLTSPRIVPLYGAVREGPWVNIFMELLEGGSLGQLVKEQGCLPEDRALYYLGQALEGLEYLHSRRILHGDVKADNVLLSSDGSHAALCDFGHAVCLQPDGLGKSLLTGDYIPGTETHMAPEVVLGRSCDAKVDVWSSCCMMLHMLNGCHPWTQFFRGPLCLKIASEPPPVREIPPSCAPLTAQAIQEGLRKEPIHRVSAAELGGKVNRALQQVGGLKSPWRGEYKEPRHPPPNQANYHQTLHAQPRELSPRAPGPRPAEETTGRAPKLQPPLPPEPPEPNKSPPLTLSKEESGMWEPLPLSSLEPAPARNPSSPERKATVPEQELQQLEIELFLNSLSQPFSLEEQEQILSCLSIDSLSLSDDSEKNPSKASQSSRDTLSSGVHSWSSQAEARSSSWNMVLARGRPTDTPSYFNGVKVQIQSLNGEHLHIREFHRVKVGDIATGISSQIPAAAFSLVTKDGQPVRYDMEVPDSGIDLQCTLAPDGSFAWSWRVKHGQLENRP

Row | SMILES | Ki [1] | pIC50 [2] | pIC50 [3]
1 | CN1CC[C@@](O)(C#Cc2ccc(F)c(-c3ncc(N)c(C(N)=O)n3)c2)C1=O [Example 110, 5-amino-2-[2-fluoro-5-[2-[(3R)-3-hydroxy-1-methyl-2-oxo-pyrrolidin-3-yl]ethynyl]phenyl]pyrimidine-4-carboxamide] | 0.14 nM | ≤ 5.70 | 7.07
2 | CN1CC[C@@](O)(C#Cc2cccc(-c3nc(C(N)=O)cc(N4CCCC4)n3)c2)C1=O [Example 5, 2-[3-[2-[(3R)-3-hydroxy-1-methyl-2-oxo-pyrrolidin-3-yl]ethynyl]phenyl]-6-pyrrolidin-1-yl-pyrimidine-4-carboxamide] | 0.8 nM | < 4.70 | 6.91
3 | CN1CC[C@@](O)(C#Cc2cccc(-c3cc4cc[nH]c4c(C(N)=O)n3)c2)C1=O [Example 49, 5-[3-[2-[(3R)-3-hydroxy-1-methyl-2-oxo-pyrrolidin-3-yl]ethynyl]phenyl]-1H-pyrrolo [2,3-c]pyridine-7-carboxamide] | 0.05 nM | ≤ 5.70 | 8.09
4 | C[C@@H]1CCN1c1cc(C(N)=O)nc(-c2cccc(C#C[C@]3(O)CCN(C)C3=O)c2)n1 [Example 22, 2-[3-[2-[(3R)-3-hydroxy-1-methyl-2-oxo-pyrrolidin-3-yl]ethynyl]phenyl]-6-[(2R)-2-methylazetidin-1-yl]pyrimidine-4-carboxamide] | 1.14 nM | < 4.70 | 7.07
5 | COCCNc1cnc(-c2cccc(C#C[C@]3(O)CCN(C)C3=O)c2)nc1C(N)=O [Example 89, 2-[3-[2-[(3R)-3-hydroxy-1-methyl-2-oxo-pyrrolidin-3-yl]ethynyl]phenyl]-5-(2-methoxyethylamino) pyrimidine-4-carboxamide] | 0.05 nM | 6.00 | 7.49
6 | CN1CC[C@@](O)(C#Cc2cccc(-c3nc(C(N)=O)cc(N4CCOCC4)n3)c2)C1=O [Example 2, 2-[3-[2-[(3R)-3-hydroxy-1-methyl-2-oxo-pyrrolidin-3-yl]ethynyl]phenyl]-6-morpholino-pyrimidine-4-carboxamide] | 1.73 nM | < 4.70 | 7.00
7 | Cc1nnc([C@](C)(O)C#Cc2cccc(-c3nc(C(N)=O)c(N)cc3F)c2)o1 [Example 130, 3-amino-5-fluoro-6-[3-[(3R)-3-hydroxy-3-(5-methyl-1,3,4-oxadiazol-2-yl)but-1-ynyl]phenyl]pyridine-2-carboxamide] | 9.05 nM | ≤ 5.70 | ≤ 5.70
8 | Cc1nc([C@](C)(O)C#Cc2cccc(-c3nc(C(N)=O)c(N)cc3F)c2)no1 [Example 132, 3-amino-5-fluoro-6-[3-[(3R)-3-hydroxy-3-(5-methyl-1,2,4-oxadiazol-3-yl)but-1-ynyl]phenyl]pyridine-2-carboxamide] | 8.75 nM | ≤ 5.70 | ≤ 5.70
9 | CN1CC[C@@](O)(C#Cc2cccc(-c3cc(OC(F)F)cc(C(N)=O)n3)c2)C1=O [Example 162, 4-(difluoromethoxy)-6-[3-[2-[(3R)-3-hydroxy-l-methyl-2-oxo-pyrrolidin-3-yl]ethynyl]phenyl]pyridine-2-carboxamide] | < 0.05 nM | < 5.70 | 7.17
10 | CNc1cc(C(N)=O)nc(-c2cccc(C#C[C@]3(O)CCN(C)C3=O)c2)n1 [Example 12, 2-[3-[2-[(3R)-3-hydroxy-1-methyl-2-oxo-pyrrolidin-3-yl]ethynyl]phenyl]-6-(methylamino)pyrimidine-4-carboxamide] | 0.33 nM | < 4.70 | 6.63
11 | CN1CC[C@@](O)(C#Cc2cccc(-c3nc(C(N)=O)cc(-c4cc(F)cc(F)c4)n3)c2)C1=O [Example 97, 6-(3,5-difluorophenyl)-2-[3-[2-[(3R)-3-hydroxy-1-methyl-2-oxo-pyrrolidin-3-yl]ethynyl]phenyl]pyrimidine-4-carboxamide] | 0.37 nM | ≤ 4.70 | 7.24
12 | CN1CC[C@@](O)(C#Cc2cccc(-c3ncc(NCC4(C)COC4)c(C(N)=O)n3)c2)C1=O [Example 105, 2-[3-[2-[(3R)-3-hydroxy-1-methyl-2-oxo-pyrrolidin-3-yl]ethynyl]phenyl]-5-[(3-methyloxetan-3-yl)methylamino]pyrimidine-4-carboxamide] | 0.35 nM | ≤ 5.70 | 7.13
13 | Cc1ccnn1-c1cc(C(N)=O)nc(-c2ccc(F)c(C#C[C@]3(O)CCN(C)C3=O)c2)n1 [Example 111, 2-[4-fluoro-3-[2-[(3R)-3-hydroxy-1-methyl-2-oxo-pyrrolidin-3-yl]ethynyl]phenyl]-6-(5-methylpyrazol-1-yl)pyrimidine-4-carboxamide] | 0.37 nM | ≤ 5.70 | 7.12
14 | CN1CC[C@@](O)(C#Cc2cccc(-c3nc(C(N)=O)c(N)n4ccnc34)c2)C1=O [Example 112, 5-amino-8-[3-[2-[(3R)-3-hydroxy-1-methyl-2-oxo-pyrrolidin-3-yl]ethynyl]phenyl]imidazo[1,2-a] pyrazine-6-carboxamide] | 0.05 nM | ≤ 4.70 | 7.05
15 | CN1CC[C@@](O)(C#Cc2cccc(-c3nc(C(N)=O)cc4c3cnn4C)c2)C1=O [Example 74, 4-[3-[2-[(3R)-3-hydroxy-1-methyl-2-oxo-pyrrolidin-3-yl]ethynyl]phenyl]-1-methyl-pyrazolo[4,3-c]pyridine-6-carboxamide] | 0.53 nM | ≤ 4.70 | 7.22
16 | CN1CC[C@@](O)(C#Cc2cccc(-c3nccc(C(N)=O)n3)c2)C1=O [Example 32, 2-[3-[2-[(3R)-3-hydroxy-1-methyl-2-oxo-pyrrolidin-3-yl]ethynyl]phenyl] pyrimidine-4-carboxamide] | 0.22 nM | < 4.70 | 6.61
17 | CN1CC[C@@](O)(C#Cc2cccc(-c3nc(C(N)=O)nc4c3ccn4C)c2)C1=O [Example 50, 4-[3-[2-[(3R)-3-hydroxy-1-methyl-2-oxo-pyrrolidin-3-yl]ethynyl]phenyl]-7-methyl-pyrrolo[2,3-d]pyrimidine-2-carboxamide] | 1.08 nM | ≤ 4.70 | 6.46
18 | CN1CC[C@@](O)(C#Cc2cccc(-c3cc(-n4cncn4)cc(C(N)=O)n3)c2)C1=O [Example 51, 6-[3-[2-[(3R)-3-hydroxy-1-methyl-2-oxo-pyrrolidin-3-yl]ethynyl]phenyl]-4-(1,2,4-triazol-1-yl)pyridine-2-carboxamide] | 0.23 nM | ≤ 4.70 | 6.89
19 | CCNc1ccc(-c2ccc(C#N)c(C#C[C@]3(O)CCN(C)C3=O)c2)nc1C(N)=O [Example 119, 6-[4-cyano-3-[2-[(3R)-3-hydroxy-1-methyl-2-oxo-pyrrolidin-3-yl]ethynyl]phenyl]-3-(ethylamino) pyridine-2-carboxamide] | 0.1 nM | ≤ 5.70 | 6.97
20 | CN1CC[C@@](O)(C#Cc2cccc(-c3nc4c(c(C(N)=O)n3)CC(C)(C)CC4)c2)C1=O [Example 35, 2-[3-[2-[(3R)-3-hydroxy-1-methyl-2-oxo-pyrrolidin-3-yl]ethynyl]phenyl]-6,6-dimethyl-7,8-dihydro-5H-quinazoline-4-carboxamide] | 2.23 nM | < 4.70 | 6.41
